In patent US9340590B2 (priority 2011, dated 2016):
Like-named read-outs stand apart in the source and are kept apart here. Positions of bridges follow the written chain, without caps; N, C: chain ends. Residues, ends and D or L forms follow the SMILES beside them.

Molecular target: hNav1.7 (Homo sapiens, UniProt Q15858)
Assay: cell-based
Type: cell-based
Settings: IonWorks Quattro, read-out: IWQ Use Nav1.7

hNav1.7, sequence (Q15858 whole entry, looked up): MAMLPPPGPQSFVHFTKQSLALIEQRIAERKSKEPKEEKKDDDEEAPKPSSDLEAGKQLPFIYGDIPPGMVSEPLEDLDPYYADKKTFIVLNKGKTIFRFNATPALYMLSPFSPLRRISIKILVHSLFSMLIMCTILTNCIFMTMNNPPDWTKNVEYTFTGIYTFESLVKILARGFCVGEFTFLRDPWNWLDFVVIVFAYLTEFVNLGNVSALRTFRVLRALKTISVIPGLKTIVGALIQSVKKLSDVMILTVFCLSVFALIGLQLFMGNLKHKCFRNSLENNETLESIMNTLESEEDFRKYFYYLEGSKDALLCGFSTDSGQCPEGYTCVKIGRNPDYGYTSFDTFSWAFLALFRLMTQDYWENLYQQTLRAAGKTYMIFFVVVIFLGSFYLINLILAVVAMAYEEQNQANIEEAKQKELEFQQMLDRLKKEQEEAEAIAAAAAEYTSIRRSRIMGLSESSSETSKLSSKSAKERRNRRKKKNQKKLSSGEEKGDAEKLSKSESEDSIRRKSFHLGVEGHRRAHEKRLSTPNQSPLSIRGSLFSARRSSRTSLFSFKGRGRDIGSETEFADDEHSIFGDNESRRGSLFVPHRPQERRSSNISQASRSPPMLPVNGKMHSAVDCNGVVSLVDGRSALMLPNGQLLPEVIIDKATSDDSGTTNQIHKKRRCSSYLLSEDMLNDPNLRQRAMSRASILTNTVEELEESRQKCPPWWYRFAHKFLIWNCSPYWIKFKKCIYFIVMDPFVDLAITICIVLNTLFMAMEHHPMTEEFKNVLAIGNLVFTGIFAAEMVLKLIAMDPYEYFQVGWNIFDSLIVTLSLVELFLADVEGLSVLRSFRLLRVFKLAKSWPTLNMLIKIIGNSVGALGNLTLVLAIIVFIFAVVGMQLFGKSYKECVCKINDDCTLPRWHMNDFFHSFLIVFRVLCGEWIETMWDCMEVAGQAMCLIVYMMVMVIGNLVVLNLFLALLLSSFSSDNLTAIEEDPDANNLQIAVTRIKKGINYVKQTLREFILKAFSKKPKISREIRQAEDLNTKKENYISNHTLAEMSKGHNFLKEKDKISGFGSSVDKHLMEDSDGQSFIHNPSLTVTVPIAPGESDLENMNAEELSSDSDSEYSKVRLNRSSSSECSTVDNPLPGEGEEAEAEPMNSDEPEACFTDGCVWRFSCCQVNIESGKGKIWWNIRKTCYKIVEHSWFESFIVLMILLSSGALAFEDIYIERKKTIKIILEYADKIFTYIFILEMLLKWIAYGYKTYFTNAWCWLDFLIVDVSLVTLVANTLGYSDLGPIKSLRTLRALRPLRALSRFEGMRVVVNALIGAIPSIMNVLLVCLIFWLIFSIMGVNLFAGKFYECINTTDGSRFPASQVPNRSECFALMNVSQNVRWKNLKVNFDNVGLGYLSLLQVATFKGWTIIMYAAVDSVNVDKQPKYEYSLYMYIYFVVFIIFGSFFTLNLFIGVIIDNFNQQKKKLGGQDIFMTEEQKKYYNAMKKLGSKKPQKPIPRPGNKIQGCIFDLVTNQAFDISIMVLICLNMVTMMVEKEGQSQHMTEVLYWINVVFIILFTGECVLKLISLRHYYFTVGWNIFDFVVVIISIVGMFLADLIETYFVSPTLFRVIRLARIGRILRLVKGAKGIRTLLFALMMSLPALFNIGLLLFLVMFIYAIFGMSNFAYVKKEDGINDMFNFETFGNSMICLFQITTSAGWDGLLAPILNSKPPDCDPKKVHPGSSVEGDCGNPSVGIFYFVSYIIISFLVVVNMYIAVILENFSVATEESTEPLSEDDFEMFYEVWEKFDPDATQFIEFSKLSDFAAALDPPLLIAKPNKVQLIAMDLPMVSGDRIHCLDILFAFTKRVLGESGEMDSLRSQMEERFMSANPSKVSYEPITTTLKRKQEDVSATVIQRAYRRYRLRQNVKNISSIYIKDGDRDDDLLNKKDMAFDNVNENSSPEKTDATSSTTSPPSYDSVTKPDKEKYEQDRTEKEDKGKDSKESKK

Row | SMILES | IC50 (Use) [nM] | IC50 (Table 26, use, […]) [nM]
1 | CC[C@H](C)[C@@H]1NC(=O)[C@@H]2CSSC[C@@H]3NC(=O)[C@H](C(C)C)NC(=O)[C@H](CC(C)C)NC(=O)[C@H](CCCNC(=N)N)NC(=O)[C@@H]4CCCN4C(=O)[C@H](CCCNC(=N)N)NC(=O)[C@H](CSSC[C@H](NC(=O)[C@@H](N)CC(=O)O)C(=O)N[C@@H](CC(C)C)C(=O)NCC(=O)N[C@@H](Cc4ccccc4)C(=O)N[C@@H](CCSC)C(=O)N[C@@H](CCCNC(=N)N)C(=O)N[C@@H](CCCCN)C(=O)N2)NC(=O)[C@H](CSSC[C@@H](C(=O)N[C@@H](CCCCN)C(=O)N[C@@H](Cc2ccc(O)cc2)C(=O)N[C@H](C(=O)N[C@@H](Cc2ccccc2)C(N)=O)C(C)C)NC(=O)[C@H](Cc2c[nH]c4ccccc24)NC(=O)[C@H](CCCCN)NC(=O)[C@H](Cc2c[nH]cn2)NC(=O)[C@H]([C@@H](C)O)NC(=O)[C@H](CCCNC(=N)N)NC(=O)[C@H](CO)NC3=O)NC(=O)[C@H](CCCCN)NC(=O)[C@H](CC(=O)O)NC(=O)[C@H](CC(N)=O)NC(=O)[C@H](CC(=O)O)NC(=O)[C@@H]2CCCN2C1=O [compound 69] (H-DCLGFMRKCIPDNDKCCRPRLVCSRTHKWCKYVF-NH2; disulfide 2-17, 9-23, 16-30) | 170 | –
2 | CC[C@H](C)[C@@H]1NC(=O)[C@@H]2CSSC[C@@H]3NC(=O)[C@H](C(C)C)NC(=O)[C@H](CC(C)C)NC(=O)[C@H](CC(N)=O)NC(=O)[C@@H]4CCCN4C(=O)[C@H](CCCNC(=N)N)NC(=O)[C@H](CSSC[C@H](NC(=O)[C@@H](N)CC(=O)O)C(=O)N[C@@H](CC(C)C)C(=O)NCC(=O)N[C@@H](Cc4ccccc4)C(=O)N[C@@H](CCSC)C(=O)N[C@@H](CCCNC(=N)N)C(=O)N[C@@H](CCCCN)C(=O)N2)NC(=O)[C@H](CSSC[C@@H](C(=O)N[C@@H](CCCCN)C(=O)N[C@@H](Cc2ccc(O)cc2)C(=O)N[C@@H](CCCNC(=N)N)C(=O)N[C@@H](Cc2ccccc2)C(N)=O)NC(=O)[C@H](Cc2c[nH]c4ccccc24)NC(=O)[C@H](CCCCN)NC(=O)[C@H](Cc2c[nH]cn2)NC(=O)[C@H]([C@@H](C)O)NC(=O)[C@H](CCCNC(=N)N)NC(=O)[C@H](CO)NC3=O)NC(=O)[C@H](CCCCN)NC(=O)[C@H](CC(=O)O)NC(=O)[C@H](CC(N)=O)NC(=O)[C@H](CC(=O)O)NC(=O)[C@@H]2CCCN2C1=O [compound 74] (H-DCLGFMRKCIPDNDKCCRPNLVCSRTHKWCKYRF-NH2; disulfide 2-17, 9-23, 16-30) | – | 80
3 | CC[C@H](C)[C@@H]1NC(=O)[C@@H]2CSSC[C@@H]3NC(=O)[C@H](CCC(=O)O)NC(=O)[C@H](CC(C)C)NC(=O)[C@H](CC(N)=O)NC(=O)[C@@H]4CCCN4C(=O)[C@H](CCCNC(=N)N)NC(=O)[C@H](CSSC[C@H](NC(=O)[C@@H](N)CC(=O)O)C(=O)N[C@@H](CC(C)C)C(=O)NCC(=O)N[C@@H](Cc4ccccc4)C(=O)N[C@@H](CCSC)C(=O)N[C@@H](CCCNC(=N)N)C(=O)N[C@@H](CCCCN)C(=O)N2)NC(=O)[C@H](CSSC[C@@H](C(=O)N[C@@H](CCCCN)C(=O)N[C@@H](Cc2ccc(O)cc2)C(=O)N[C@H](C(=O)N[C@@H](Cc2ccccc2)C(N)=O)C(C)C)NC(=O)[C@H](Cc2c[nH]c4ccccc24)NC(=O)[C@H](CCCCN)NC(=O)[C@H](Cc2c[nH]cn2)NC(=O)[C@H]([C@@H](C)O)NC(=O)[C@H](CCCNC(=N)N)NC(=O)[C@H](CO)NC3=O)NC(=O)[C@H](CCCCN)NC(=O)[C@H](CC(=O)O)NC(=O)[C@H](CC(N)=O)NC(=O)[C@H](CC(=O)O)NC(=O)[C@@H]2CCCN2C1=O [compound 102] (H-DCLGFMRKCIPDNDKCCRPNLECSRTHKWCKYVF-NH2; disulfide 2-17, 9-23, 16-30) | 1400 | –
